Experimental data taken from patent publication US9776979B2, “EBI2 modulators” (Sanford-Burnham Medical Research Institute, priority 2013, dated 2017).

Target: EBI2 (Homo sapiens, UniProt P32249)
Assay: Cell-based luminescent assay (EBI2 modulation)
Settings: not given
Summary of the method: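 Cells plated overnight at 37° C, then exposed to compound at 4-5 uM final with 80 nM 7a,25-OHC agonist for 60 min at 37° C. Luminescence read after 60 min detection at 25° C in the dark; values normalized to neutral and stimulator controls and plate-pattern corrected.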

Sequence of EBI2 (P32249 whole entry): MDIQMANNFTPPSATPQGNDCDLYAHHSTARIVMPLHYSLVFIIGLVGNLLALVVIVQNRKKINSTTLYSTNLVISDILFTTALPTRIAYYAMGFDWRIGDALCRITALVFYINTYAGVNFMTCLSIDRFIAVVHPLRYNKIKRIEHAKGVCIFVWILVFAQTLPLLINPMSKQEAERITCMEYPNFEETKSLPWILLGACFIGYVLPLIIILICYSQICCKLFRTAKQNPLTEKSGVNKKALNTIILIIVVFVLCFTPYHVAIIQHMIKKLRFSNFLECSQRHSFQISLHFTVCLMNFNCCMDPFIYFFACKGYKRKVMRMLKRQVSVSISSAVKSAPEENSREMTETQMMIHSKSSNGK

Row | Compound | IC50 [nM]
1 | O=C(/C=C/c1ccc(Br)cc1)N1CCN(Cc2ccc(Cl)cc2)CC1 [Compound D1, (E)-3-(4-bromophenyl)-1-(4-(4-chlorobenzyl)piperazin-1-yl) prop-2-en-1-one] | < 100

Same assay, conditions: cell-based luminescence; 7a,25-OHC final assay concentration 80 nM; 60 minutes incubation; read-out: IC50

Row | Compound | IC50 [nM]
2 | O=C(C#Cc1ccc(Cl)cc1)N1CCN(C(=O)c2ccc(C(F)(F)F)cc2)CC1 [Compound C73, 3-(4-chlorophenyl)-1-(4-{[4-(trifluoromethyl)phenyl]carbonyl}piperazinyl)prop-2-yn-1-one] | < 100
3 | O=C(C#Cc1cccc(Cl)c1)N1CCN(Cc2ccc(F)cc2)CC1 [Compound C129, 3-(3-chlorophenyl)-1-{4-[(4-fluorophenyl)methyl]piperazinyl}prop-2-yn-1-one] | < 100
4 | 5-chloroindol-2-yl 4-{[4-(4-chlorophenyl)phenyl]sulfonyl}piperazinyl ketone [Compound C172] | 500 to 5000
5 | O=C(C=Cc1ccc2c(c1)OCO2)N1CCN(C(=O)c2ccc(Cl)cc2)CC1 [Compound C238, 3-(2H-benzo[3,4-d]1,3-dioxolen-5-yl)-1-{4-[(4-chlorophenyl)carbonyl]piperazinyl}prop-2-en-1-one] | < 100
6 | O=C(c1ccc(I)cc1)N1CCN(C(=O)c2cc3cc(Cl)ccc3[nH]2)CC1 [Compound C115, 5-chloroindol-2-yl 4-[(4-iodophenyl)carbonyl]piperazinyl ketone] | < 100
7 | O=C(c1cnc2ccccc2c1)N1CCN(Cc2ccc(Cl)cc2)CC1 [Compound C464, 4-[(4-chlorophenyl)methyl]piperazinyl 3-quinolyl ketone] | 100 to 500
8 | 5-bromoindol-2-yl 4-[(4-chlorophenyl)methyl]piperazinyl ketone [Compound C303] | < 100
9 | O=C(/C=C/c1ccc(C(F)(F)F)cc1)N1CCN(C(=O)c2cc3cc(Cl)ccc3[nH]2)CC1 [Compound C218, (2E)-1-{4-[(5-chloroindol-2-yl)carbonyl]piperazinyl}-3-[4-(trifluoromethyl)phenyl]prop-2-en-1-one] | < 100
10 | O=C(/C=C/c1cc(Br)ccc1F)N1CCN(C(c2ccccc2)c2ccccc2)CC1 [Compound C441, (2E)-1-[4-(diphenylmethyl)piperazinyl]-3-(5-bromo-2-fluorophenyl)prop-2-en-1-one] | 100 to 500
11 | O=C(c1nc2ccccc2s1)N1CCN(C(c2ccccc2)c2ccccc2)CC1 [Compound C168, benzothiazol-2-yl 4-(diphenylmethyl)piperazinyl ketone] | 500 to 5000
12 | O=C(Nc1ccc(F)c(C(F)(F)F)c1)N1CCN(C(=O)c2cc3cc(Cl)ccc3[nH]2)CC1 [Compound C450, {4-[(5-chloroindol-2-yl)carbonyl]piperazinyl}-N-[4-fluoro-3-(trifluoromethyl)phenyl]carboxamide] | 100 to 500

Now from value to compound:

Row | IC50 [nM] | Compound
13 | < 100 | O=C(C#Cc1ccc(F)cc1F)N1CCN(C(=O)c2ccc(Cl)cc2)CC1 [Compound C349, 3-(2,4-difluorophenyl)-1-{4-[(4-chlorophenyl)carbonyl]piperazinyl}prop-2-yn-1-one]
14 | < 100 | O=C(C#Cc1ccccc1)N1CCN(C(=O)c2ccc(F)cc2)CC1 [Compound C116, 1-{4-[(4-fluorophenyl)carbonyl]piperazinyl}-3-phenylprop-2-yn-1-one]
15 | 100 to 500 | O=C(c1cc2cc(Cl)ccc2[nH]1)N1CCN(Cc2ccc(F)cc2C(F)(F)F)CC1 [Compound C426, 5-chloroindol-2-yl 4-{[4-fluoro-2-(trifluoromethyl)phenyl]methyl}piperazinyl ketone]
16 | 500 to 5000 | O=C(C#Cc1ccc(F)cc1)N1CCN(Cc2ccc(F)cc2C(F)(F)F)CC1 [Compound C179, 3-(4-fluorophenyl)-1-(4-{[4-fluoro-2-(trifluoromethyl)phenyl]methyl}piperazinyl)prop-2-yn-1-one]
17 | < 100 | O=C(c1cc2cc(Cl)ccc2[nH]1)N1CCC(Oc2ccc(F)cc2)CC1 [Compound C315, 5-chloroindol-2-yl 4-(4-fluorophenoxy)piperidyl ketone]
